Data as given in US8802597B2, “Herbicidal pyrimidines” (E I du Pont de Nemours and Company, priority 2003, dated 2014).

How the values were obtained:
Assay in all cases: Test E flooded paddy water application
Assay type in all cases: in vivo
[1] = system: late watergrass (Echinochloa oryzicola); conditions: Flood, 21 days, scale 0 to 100 (0 no effect, 100 complete control)
In short: (§1)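 Response scored visually on a 0–100 scale (100 = complete control) at 21 days against untreated pots. Treatment was into paddy water 3 cm deep over silt loam, with plants at the 2.0–2.5-leaf stage, grown under 16-h light at 29.5/26.7 °C day/night.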

[2] = system: water seeded rice seedlings (Oryza sativa cv. ‘Japonica-M202’); conditions: Flood, 21 days, scale 0 to 100 (0 no effect, 100 complete control)
In short: as §1

[3] = system: junglerice (Echinochloa colona); conditions: Flood, 21 days, scale 0 to 100 (0 no effect, 100 complete control)
In short: as §1

[4] = system: smallflower umbrella sedge (Cyperus difformis); conditions: Flood, 21 days, scale 0 to 100 (0 no effect, 100 complete control)
In short: as §1

[5] = system: transplanted rice seedlings (Oryza sativa cv. ‘Japonica-M202’); conditions: Flood, 21 days, scale 0 to 100 (0 no effect, 100 complete control)
In short: as §1

[6] = system: ducksalad (Heteranthera limosa); conditions: Flood, 21 days, scale 0 to 100 (0 no effect, 100 complete control); for Plant response rating, Ducksalad: 16 g ai/ha
In short: as §1

[7] = system: barnyardgrass (Echinochloa crus-galli); conditions: Flood, 21 days, scale 0 to 100 (0 no effect, 100 complete control); for Plant response rating, Barnyardgrass: 16 g ai/ha
In short: as §1

[8] = system: early watergrass (Echinochloa oryzoides); conditions: Flood, 21 days, scale 0 to 100 (0 no effect, 100 complete control)
In short: as §1

[9] = system: bearded (brdd.) sprangletop (Leptochloa fusca ssp. fascicularis); conditions: Flood, 21 days, scale 0 to 100 (0 no effect, 100 complete control)
In short: as §1

[10] = system: rice flatsedge (Cyperus iria); conditions: Flood, 21 days, scale 0 to 100 (0 no effect, 100 complete control)
In short: as §1

## COC(=O)c1nc(-c2ccc(I)cc2)nc(N)c1Br [Compound 128]
[1]; 32 g ai/ha
  Watergrass, Late plant response rating: 0
[1]; 64 g ai/ha
  Watergrass, Late plant response rating: 0
[1]; 125 g ai/ha
  Watergrass, Late plant response rating: 0
[1]; 250 g ai/ha
  Watergrass, Late plant response rating: 0
[1]; 16 g ai/ha
  Plant response rating, Watergrass, Late: 0
[2]; 32 g ai/ha
  Rice, Water Seeded plant response rating: 0
[2]; 64 g ai/ha
  Rice, Water Seeded plant response rating: 0
[2]; 125 g ai/ha
  Rice, Water Seeded plant response rating: 0
[2]; 250 g ai/ha
  Rice, Water Seeded plant response rating: 0
[2]; 16 g ai/ha
  Plant response rating, Rice, Water Seeded: 0
[3]; 32 g ai/ha
  Junglerice plant response rating: 0
[3]; 64 g ai/ha
  Junglerice plant response rating: 0
[3]; 125 g ai/ha
  Junglerice plant response rating: 0
[3]; 250 g ai/ha
  Junglerice plant response rating: 10
[3]; 16 g ai/ha
  Plant response rating, Junglerice: 0
[4]; 32 g ai/ha
  Sedge, Umbrella plant response rating: 60
[4]; 64 g ai/ha
  Sedge, Umbrella plant response rating: 70
[4]; 125 g ai/ha
  Sedge, Umbrella plant response rating: 100
[4]; 250 g ai/ha
  Sedge, Umbrella plant response rating: 100
[4]; 16 g ai/ha
  Plant response rating, Sedge, Umbrella: 0
[5]; 32 g ai/ha
  Rice, Transplanted plant response rating: 0
[5]; 64 g ai/ha
  Rice, Transplanted plant response rating: 0
[5]; 125 g ai/ha
  Rice, Transplanted plant response rating: 0
[5]; 250 g ai/ha
  Rice, Transplanted plant response rating: 0
[5]; 16 g ai/ha
  Plant response rating, Rice, Transplanted: 0
[6]; 32 g ai/ha
  Ducksalad plant response rating: 100
[6]; 64 g ai/ha
  Ducksalad plant response rating: 100
[6]; 125 g ai/ha
  Ducksalad plant response rating: 100
[6]; 250 g ai/ha
  Ducksalad plant response rating: 100
[6]
  Plant response rating, Ducksalad: 95
[7]; 32 g ai/ha
  Barnyardgrass plant response rating: 0
[7]; 64 g ai/ha
  Barnyardgrass plant response rating: 0
[7]; 125 g ai/ha
  Barnyardgrass plant response rating: 0
[7]; 250 g ai/ha
  Barnyardgrass plant response rating: 0
[7]
  Plant response rating, Barnyardgrass: 0
[8]; 32 g ai/ha
  Watergrass, Early plant response rating: 0
[8]; 64 g ai/ha
  Watergrass, Early plant response rating: 0
[8]; 125 g ai/ha
  Watergrass, Early plant response rating: 0
[8]; 250 g ai/ha
  Watergrass, Early plant response rating: 0
[8]; 16 g ai/ha
  Plant response rating, Watergrass, Early: 0
[9]; 32 g ai/ha
  Sprangletop, Brdd. plant response rating: 0
[9]; 64 g ai/ha
  Sprangletop, Brdd. plant response rating: 0
[9]; 125 g ai/ha
  Sprangletop, Brdd. plant response rating: 0
[9]; 250 g ai/ha
  Sprangletop, Brdd. plant response rating: 80
[9]; 16 g ai/ha
  Plant response rating, Sprangletop, Brdd.: 0
[10]; 32 g ai/ha
  Flatsedge, Rice plant response rating: 0
[10]; 64 g ai/ha
  Flatsedge, Rice plant response rating: 0
[10]; 125 g ai/ha
  Flatsedge, Rice plant response rating: 60
[10]; 250 g ai/ha
  Flatsedge, Rice plant response rating: 80
[10]; 16 g ai/ha
  Plant response rating, Flatsedge, Rice: 0

## COC(=O)c1nc(-c2ccc(Br)cc2)nc(N)c1Br [Compound 129]
[1]; 64 g ai/ha
  Watergrass, Late plant response rating: 0
[1]; 125 g ai/ha
  Watergrass, Late plant response rating: 0
[1]; 250 g ai/ha
  Watergrass, Late plant response rating: 0
[1]; 16 g ai/ha
  Plant response rating, Watergrass, Late: 0
[1]; 32 g ai/ha
  Plant response rating, Watergrass, Late: 0
[2]; 64 g ai/ha
  Rice, Water Seeded plant response rating: 0
[2]; 125 g ai/ha
  Rice, Water Seeded plant response rating: 0
[2]; 250 g ai/ha
  Rice, Water Seeded plant response rating: 0
[2]; 16 g ai/ha
  Plant response rating, Rice, Water Seeded: 0
[2]; 32 g ai/ha
  Plant response rating, Rice, Water Seeded: 0
[3]; 64 g ai/ha
  Junglerice plant response rating: 0
[3]; 125 g ai/ha
  Junglerice plant response rating: 0
[3]; 250 g ai/ha
  Junglerice plant response rating: 0
[3]; 16 g ai/ha
  Plant response rating, Junglerice: 0
[3]; 32 g ai/ha
  Plant response rating, Junglerice: 0
[4]; 64 g ai/ha
  Sedge, Umbrella plant response rating: 80
[4]; 125 g ai/ha
  Sedge, Umbrella plant response rating: 100
[4]; 250 g ai/ha
  Sedge, Umbrella plant response rating: 100
[4]; 16 g ai/ha
  Plant response rating, Sedge, Umbrella: 0
[4]; 32 g ai/ha
  Plant response rating, Sedge, Umbrella: 60
[5]; 64 g ai/ha
  Rice, Transplanted plant response rating: 0
[5]; 125 g ai/ha
  Rice, Transplanted plant response rating: 0
[5]; 250 g ai/ha
  Rice, Transplanted plant response rating: 0
[5]; 16 g ai/ha
  Plant response rating, Rice, Transplanted: 0
[5]; 32 g ai/ha
  Plant response rating, Rice, Transplanted: 0
[6]; 32 g ai/ha
  Ducksalad plant response rating: 100
[6]; 64 g ai/ha
  Ducksalad plant response rating: 100
[6]; 125 g ai/ha
  Ducksalad plant response rating: 100
[6]; 250 g ai/ha
  Ducksalad plant response rating: 100
[6]
  Plant response rating, Ducksalad: 100
[7]; 32 g ai/ha
  Barnyardgrass plant response rating: 0
[7]; 64 g ai/ha
  Barnyardgrass plant response rating: 0
[7]; 125 g ai/ha
  Barnyardgrass plant response rating: 0
[7]; 250 g ai/ha
  Barnyardgrass plant response rating: 0
[7]
  Plant response rating, Barnyardgrass: 0
[8]; 64 g ai/ha
  Watergrass, Early plant response rating: 0
[8]; 125 g ai/ha
  Watergrass, Early plant response rating: 0
[8]; 250 g ai/ha
  Watergrass, Early plant response rating: 0
[8]; 16 g ai/ha
  Plant response rating, Watergrass, Early: 0
[8]; 32 g ai/ha
  Plant response rating, Watergrass, Early: 0
[9]; 64 g ai/ha
  Sprangletop, Brdd. plant response rating: 0
[9]; 125 g ai/ha
  Sprangletop, Brdd. plant response rating: 0
[9]; 250 g ai/ha
  Sprangletop, Brdd. plant response rating: 70
[9]; 16 g ai/ha
  Plant response rating, Sprangletop, Brdd.: 0
[9]; 32 g ai/ha
  Plant response rating, Sprangletop, Brdd.: 0
[10]; 64 g ai/ha
  Flatsedge, Rice plant response rating: 100
[10]; 125 g ai/ha
  Flatsedge, Rice plant response rating: 100
[10]; 250 g ai/ha
  Flatsedge, Rice plant response rating: 100
[10]; 16 g ai/ha
  Plant response rating, Flatsedge, Rice: 100
[10]; 32 g ai/ha
  Plant response rating, Flatsedge, Rice: 100
